This is an account of results in patent publication US20240383871A1, “COMPOUND USEFUL FOR PET-IMAGING OF BRUTON’S TYROSINE KINASE” (Bristol-Myers Squibb Company, priority 2021, published 2024).

This series in a line: In-vivo PET imaging in rhesus monkey to determine brain penetrance. The conditions noted are these: healthy rhesus monkey. The source says:
The non-human primate was kept immobilized in the extended imaging bed inside the gantry of the PET imaging system (MicroPET® P4, Siemens Preclinical Solutions, Knoxville, TN). The scanning region was a single bed position from approximately the top of skull and extending through the lower neck area, to fit into the 7.6 cm MicroPET system axial FOV. A 10-minute transmission scan was acquired using a ^57Co point source for the purpose of attenuation correction of the subsequent emission image. Approximately 0.96 mCi of [^11C]-(R)-4-(2-acryloyl-1,2,3,4-tetrahydroisoquinolin-5-yl)-5-fluoro-2,3-dimethyl-1H-indole-7-carboxamide was injected IV and a 60-minute dynamic PET image was acquired. PET images were reconstructed with a filtered back projection (FBP) or MAP algorithm with attenuation correction. Using the AMIDE software package, an ROI encompassing the whole brain was manually drawn in the PET images. Mean standardized uptake value (SUV), which is normalized with body weight (kg) and injected dose (mCi), was calculated and plotted as a function of time to obtain a TAC. […] In healthy rhesus monkey, as in WT mice. there is very low brain expression of BTK in a non-diseased state.

SMILES strings stand for the structures.

Consider `C=C[11C](=O)N1CCc2c(cccc2-c2c(F)cc(C(N)=O)c3[nH]c(C)c(C)c23)C1` [[^11C]-(R)-4-(2-acryloyl-1,2,3,4-tetrahydroisoquinolin-5-yl)-5-fluoro-2,3-dimethyl-1H-indole-7-carboxamide], for which the “brain time-activity curve (TAC) behaviour” value was “rapid brain penetration followed by washout”. The brain penetrance entry (baseline (PET ligand only), IV, 0-60 minutes) was “confirmed brain penetrance”. In addition, the brain uptake pattern entry (summed images 0-60 minutes post injection (FIG. 7)) is given as “Diffuse uptake was observed throughout the brain”.
